In assay [1] the test system is Ba/F3 cells expressing FLT3 D835H. Put plainly: MTT viability assay. Particulars: Mus musculus, BaF3; Ba/F3 FLT3 D835H; MTT, 72 hours; read-out: IC50 viability. The format is cell-based. As to the method:
(§1) Drug treatments were carried out for 72 hours. Details are provided in the Supplemental Methods.

For assay [2], the system named is Ba/F3 cells expressing FLT3 ITD/D835Y. Briefly: MTT viability assay. In kind it is cell-based. Particulars: Mus musculus, BaF3; Ba/F3 FLT3 ITD/D835Y; MTT, 72 hours; read-out: IC50 viability. On the procedure: as §1
(In general: Tetrazolium assays rely on reduction of a dye to a coloured formazan, in cell work by metabolically active cells.)

Assay [3] deals with MOLM13-RES cells. Briefly: MTT viability assay. The format is cell-based. Particulars: Homo sapiens; MOLM13-RES, FLT3-ITD/D835Y; MTT, 72 hours; read-out: IC50 viability. On the procedure:
as §1

In assay [4] the test system is MOLM13 cells. Put plainly: MOLM13 viability ± cytokines (MTT). The note with it: Homo sapiens.
Assay [5] concerns AKT1, AKT3. Put plainly: KiNativ, OCI cells live cell. In kind it is cell-based, human.
Assay [6] deals with ATR (Homo sapiens, UniProt Q13535). Put plainly: KiNativ, OCI cells live cell. In kind it is cell-based. The note with it: 2 h, labeling site ATP, peptide […].
Assay [7] concerns the target CK1a (Homo sapiens, UniProt P48729). Put plainly: KiNativ, OCI cells live cell. The format is cell-based. Particulars: 2 h, labeling site Lys2, peptide […].
The target in assay [8] is FGR (Homo sapiens, UniProt P09769). Briefly: KiNativ, OCI cells live cell. In kind it is cell-based. Particulars: 2 h, labeling site Activation Loop, peptide […].
The target of assay [9] is T1, IKKb (Homo sapiens, UniProt O14920).
T1 sequence (O14920 1-756): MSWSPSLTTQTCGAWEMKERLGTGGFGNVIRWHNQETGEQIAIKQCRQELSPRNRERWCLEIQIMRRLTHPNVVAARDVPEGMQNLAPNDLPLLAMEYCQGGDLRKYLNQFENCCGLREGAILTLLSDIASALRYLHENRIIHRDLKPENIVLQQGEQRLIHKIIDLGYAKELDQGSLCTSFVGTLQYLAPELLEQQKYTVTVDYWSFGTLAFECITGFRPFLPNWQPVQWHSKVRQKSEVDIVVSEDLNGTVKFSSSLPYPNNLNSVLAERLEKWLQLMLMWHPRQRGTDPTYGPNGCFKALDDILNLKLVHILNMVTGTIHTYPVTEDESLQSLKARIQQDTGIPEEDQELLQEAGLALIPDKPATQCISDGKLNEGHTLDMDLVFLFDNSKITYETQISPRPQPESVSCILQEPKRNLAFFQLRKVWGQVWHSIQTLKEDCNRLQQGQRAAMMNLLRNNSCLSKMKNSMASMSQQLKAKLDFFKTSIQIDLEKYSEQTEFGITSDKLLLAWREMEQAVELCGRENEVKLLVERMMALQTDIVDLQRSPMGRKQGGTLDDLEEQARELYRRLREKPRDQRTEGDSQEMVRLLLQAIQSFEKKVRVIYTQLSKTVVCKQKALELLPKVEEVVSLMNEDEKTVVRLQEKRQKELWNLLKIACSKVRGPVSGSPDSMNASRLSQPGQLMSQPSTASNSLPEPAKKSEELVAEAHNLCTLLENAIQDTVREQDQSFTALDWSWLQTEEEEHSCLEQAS
Briefly: KiNativ, OCI cells live cell. In kind it is cell-based. Particulars: 2 h.

Assay [10] deals with MAP2K1 (Homo sapiens, UniProt Q02750). Put plainly: KiNativ, OCI cells live cell. The format is cell-based. The note with it: 2 h, labeling site Lys2, peptide […].
Assay [11] deals with MAP3K15, MAP3K5, MAP3K6. Briefly: KiNativ, OCI cells live cell. In kind it is cell-based, human. Particulars: labeling site Lys1, peptide IAIKEIPER
In assay [12] the test system is MAST1, MAST2. Briefly: KiNativ, OCI cells live cell. Particulars: labeling site Lys2, peptide DLKPDNLLITSMGHIK
In kind it is cell-based, human.

Assay [13] addresses T2, MSK1 domain1 (Homo sapiens, UniProt O75582).
T2 construct: MSK1 domain1
Briefly: KiNativ, OCI cells live cell. In kind it is cell-based. The note with it: 2 h, labeling site Lys2, peptide […].

Assay [14] has as its target NDR2 (Homo sapiens, UniProt Q9Y2H1). Briefly: KiNativ, OCI cells live cell. The format is cell-based. Particulars: 2 h.
The target in assay [15] is NEK3 (Homo sapiens, UniProt P51956). Put plainly: KiNativ, OCI cells live cell. The format is cell-based. The note with it: 2 h, labeling site Activation Loop, peptide […].
Assay [16] has as its target T3, PIP4K2C (Homo sapiens, UniProt Q8TBX8).
T3 sequence (Q8TBX8 1-421): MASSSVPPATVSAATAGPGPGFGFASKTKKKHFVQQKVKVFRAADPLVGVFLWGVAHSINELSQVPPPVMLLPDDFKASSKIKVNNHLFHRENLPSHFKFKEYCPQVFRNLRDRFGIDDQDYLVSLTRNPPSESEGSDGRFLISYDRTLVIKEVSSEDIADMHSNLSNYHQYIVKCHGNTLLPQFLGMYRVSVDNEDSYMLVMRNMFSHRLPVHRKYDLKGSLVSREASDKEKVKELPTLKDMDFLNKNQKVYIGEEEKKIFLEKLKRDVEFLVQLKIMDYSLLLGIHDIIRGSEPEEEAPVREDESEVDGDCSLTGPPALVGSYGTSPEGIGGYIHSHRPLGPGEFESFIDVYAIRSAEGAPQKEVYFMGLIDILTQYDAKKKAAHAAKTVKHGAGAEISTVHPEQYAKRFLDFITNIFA
Briefly: KiNativ, OCI cells live cell. In kind it is cell-based. Particulars: 2 h, labeling site ATP.

Assay [17] concerns the target TAK1 (Homo sapiens, UniProt O43318). Briefly: KiNativ, OCI cells live cell. The format is cell-based. Particulars: 2 h, labeling site Lys2, peptide […].
Assay [18] has as its target TEC (Homo sapiens, UniProt P42680). Briefly: KiNativ, OCI cells live cell. In kind it is cell-based. The note with it: 2 h, labeling site Activation Loop, peptide […].
The test system of assay [19] is Wnk1, Wnk2, Wnk4. Put plainly: KiNativ, OCI cells live cell. In kind it is cell-based, human. Particulars: labeling site Activation Loop, peptide IGDLGLATLKR
Assay [20] concerns the target YANK3 (Homo sapiens, UniProt Q86UX6). Put plainly: KiNativ, OCI cells live cell. In kind it is cell-based. Particulars: 2 h, labeling site Lys2, peptide […].
Setting [21] is: MOLM-13, read-out: IC50 viability, MOLM13 + GM-CSF.
Setting [22] is: MOLM-13, read-out: IC50 viability, MOLM13 + IL3.
[23] abbreviates: MOLM-13, read-out: IC50 viability, MOLM13 + IL3, IL6, GM-CSF.
The mark [24] stands for this setting: MOLM-13, read-out: IC50 viability, MOLM13 + IL6.
Where [25] appears, read: MOLM-13, read-out: IC50 viability, MOLM13, no cytokine.

pIC50: −log10 of the molar value. Read-outs that look alike come from different tables or passages of the source.

Chain of NDR2 (Q9Y2H1 whole entry): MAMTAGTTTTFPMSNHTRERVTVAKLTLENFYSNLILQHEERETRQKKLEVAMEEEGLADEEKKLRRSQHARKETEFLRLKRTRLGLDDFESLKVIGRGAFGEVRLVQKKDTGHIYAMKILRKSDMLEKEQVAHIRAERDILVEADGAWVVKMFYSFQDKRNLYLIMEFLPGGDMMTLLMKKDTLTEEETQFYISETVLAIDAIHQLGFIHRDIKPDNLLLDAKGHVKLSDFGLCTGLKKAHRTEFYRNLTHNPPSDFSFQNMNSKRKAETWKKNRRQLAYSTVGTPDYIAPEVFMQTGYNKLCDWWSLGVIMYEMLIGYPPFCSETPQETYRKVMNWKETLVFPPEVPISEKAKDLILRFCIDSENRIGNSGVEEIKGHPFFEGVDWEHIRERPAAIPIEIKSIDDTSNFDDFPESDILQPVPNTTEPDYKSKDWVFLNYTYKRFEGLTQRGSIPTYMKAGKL
Chain of YANK3 (Q86UX6 whole entry): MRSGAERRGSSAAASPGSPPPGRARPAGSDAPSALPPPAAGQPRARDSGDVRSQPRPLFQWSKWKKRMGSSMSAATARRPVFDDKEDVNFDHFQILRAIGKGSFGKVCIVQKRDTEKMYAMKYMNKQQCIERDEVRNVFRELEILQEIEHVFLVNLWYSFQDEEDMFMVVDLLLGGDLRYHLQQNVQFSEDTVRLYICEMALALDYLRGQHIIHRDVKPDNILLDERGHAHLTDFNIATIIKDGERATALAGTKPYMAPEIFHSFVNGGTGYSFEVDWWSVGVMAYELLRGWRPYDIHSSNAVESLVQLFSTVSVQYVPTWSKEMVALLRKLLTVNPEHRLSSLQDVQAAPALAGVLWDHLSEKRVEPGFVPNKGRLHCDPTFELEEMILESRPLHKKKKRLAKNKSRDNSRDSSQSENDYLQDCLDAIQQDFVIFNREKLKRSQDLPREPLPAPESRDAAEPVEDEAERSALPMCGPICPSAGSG
Chain of MAP2K1 (Q02750 whole entry): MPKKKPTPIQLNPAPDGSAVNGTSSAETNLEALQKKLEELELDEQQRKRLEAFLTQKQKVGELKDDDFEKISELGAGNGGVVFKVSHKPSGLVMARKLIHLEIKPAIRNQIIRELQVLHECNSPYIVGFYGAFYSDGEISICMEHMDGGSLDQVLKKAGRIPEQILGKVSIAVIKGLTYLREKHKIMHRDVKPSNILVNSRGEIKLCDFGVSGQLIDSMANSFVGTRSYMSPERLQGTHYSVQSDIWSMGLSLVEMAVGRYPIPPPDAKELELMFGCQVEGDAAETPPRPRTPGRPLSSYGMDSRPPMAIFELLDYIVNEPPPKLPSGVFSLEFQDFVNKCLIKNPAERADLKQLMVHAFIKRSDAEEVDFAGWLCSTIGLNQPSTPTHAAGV
Chain of NEK3 (P51956 whole entry): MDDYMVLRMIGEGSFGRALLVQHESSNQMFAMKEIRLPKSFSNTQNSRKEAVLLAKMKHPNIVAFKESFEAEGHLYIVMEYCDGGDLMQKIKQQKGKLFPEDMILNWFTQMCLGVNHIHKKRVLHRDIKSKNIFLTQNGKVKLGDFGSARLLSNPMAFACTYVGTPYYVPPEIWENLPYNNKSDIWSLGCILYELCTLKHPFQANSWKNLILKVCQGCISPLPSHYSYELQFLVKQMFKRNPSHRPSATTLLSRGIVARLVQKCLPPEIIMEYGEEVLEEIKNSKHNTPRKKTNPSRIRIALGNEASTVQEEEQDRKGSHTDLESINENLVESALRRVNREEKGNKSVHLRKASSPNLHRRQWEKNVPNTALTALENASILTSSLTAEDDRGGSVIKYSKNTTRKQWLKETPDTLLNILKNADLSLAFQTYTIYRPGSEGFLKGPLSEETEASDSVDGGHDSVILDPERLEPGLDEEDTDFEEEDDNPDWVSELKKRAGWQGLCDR
Chain of FGR (P09769 whole entry): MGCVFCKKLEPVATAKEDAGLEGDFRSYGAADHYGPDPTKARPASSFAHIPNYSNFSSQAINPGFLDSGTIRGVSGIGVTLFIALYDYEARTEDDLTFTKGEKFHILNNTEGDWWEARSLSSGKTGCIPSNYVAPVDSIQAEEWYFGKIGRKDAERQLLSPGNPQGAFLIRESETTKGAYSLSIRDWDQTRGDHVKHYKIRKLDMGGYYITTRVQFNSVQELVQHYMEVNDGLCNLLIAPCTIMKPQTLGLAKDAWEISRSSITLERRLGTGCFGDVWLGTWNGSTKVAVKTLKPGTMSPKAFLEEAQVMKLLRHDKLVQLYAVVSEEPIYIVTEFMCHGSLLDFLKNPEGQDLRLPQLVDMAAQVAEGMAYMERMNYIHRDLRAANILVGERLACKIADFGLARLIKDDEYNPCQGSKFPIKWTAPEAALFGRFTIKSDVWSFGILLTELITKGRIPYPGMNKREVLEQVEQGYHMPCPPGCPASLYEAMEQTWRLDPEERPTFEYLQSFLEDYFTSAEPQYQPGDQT
Chain of TAK1 (O43318 whole entry): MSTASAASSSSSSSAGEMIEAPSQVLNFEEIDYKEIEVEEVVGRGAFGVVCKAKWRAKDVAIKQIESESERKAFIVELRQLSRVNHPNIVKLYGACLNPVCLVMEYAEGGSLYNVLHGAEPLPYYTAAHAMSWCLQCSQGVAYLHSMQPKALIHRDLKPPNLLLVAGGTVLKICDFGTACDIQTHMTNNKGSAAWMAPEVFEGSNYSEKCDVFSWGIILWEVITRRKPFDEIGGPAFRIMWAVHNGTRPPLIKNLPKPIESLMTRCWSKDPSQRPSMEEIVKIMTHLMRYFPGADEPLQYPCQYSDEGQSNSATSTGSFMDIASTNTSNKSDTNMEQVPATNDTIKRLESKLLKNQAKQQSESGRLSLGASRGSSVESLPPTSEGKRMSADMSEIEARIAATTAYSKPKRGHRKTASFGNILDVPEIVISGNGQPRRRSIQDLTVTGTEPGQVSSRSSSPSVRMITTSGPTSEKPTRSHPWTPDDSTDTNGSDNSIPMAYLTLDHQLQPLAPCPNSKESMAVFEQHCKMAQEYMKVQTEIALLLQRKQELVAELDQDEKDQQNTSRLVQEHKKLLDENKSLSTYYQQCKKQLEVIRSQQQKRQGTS
Chain of TEC (P42680 whole entry): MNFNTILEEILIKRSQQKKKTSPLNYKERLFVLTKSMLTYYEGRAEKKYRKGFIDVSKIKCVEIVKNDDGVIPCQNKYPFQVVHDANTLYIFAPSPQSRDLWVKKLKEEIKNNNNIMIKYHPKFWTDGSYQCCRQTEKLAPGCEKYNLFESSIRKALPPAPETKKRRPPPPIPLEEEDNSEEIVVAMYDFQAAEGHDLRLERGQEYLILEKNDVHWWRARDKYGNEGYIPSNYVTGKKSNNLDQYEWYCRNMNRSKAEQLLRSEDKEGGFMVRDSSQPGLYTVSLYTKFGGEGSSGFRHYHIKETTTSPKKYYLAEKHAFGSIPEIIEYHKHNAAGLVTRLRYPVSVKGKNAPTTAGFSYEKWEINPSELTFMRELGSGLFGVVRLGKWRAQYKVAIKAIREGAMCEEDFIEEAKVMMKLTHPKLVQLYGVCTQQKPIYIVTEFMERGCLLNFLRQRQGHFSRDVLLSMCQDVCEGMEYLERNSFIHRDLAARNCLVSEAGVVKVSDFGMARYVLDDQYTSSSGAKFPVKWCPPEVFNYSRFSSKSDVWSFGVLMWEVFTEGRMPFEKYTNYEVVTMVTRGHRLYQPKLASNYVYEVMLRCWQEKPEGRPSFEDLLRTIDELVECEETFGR
T2 sequence (O75582 whole entry, the tested form may be a part): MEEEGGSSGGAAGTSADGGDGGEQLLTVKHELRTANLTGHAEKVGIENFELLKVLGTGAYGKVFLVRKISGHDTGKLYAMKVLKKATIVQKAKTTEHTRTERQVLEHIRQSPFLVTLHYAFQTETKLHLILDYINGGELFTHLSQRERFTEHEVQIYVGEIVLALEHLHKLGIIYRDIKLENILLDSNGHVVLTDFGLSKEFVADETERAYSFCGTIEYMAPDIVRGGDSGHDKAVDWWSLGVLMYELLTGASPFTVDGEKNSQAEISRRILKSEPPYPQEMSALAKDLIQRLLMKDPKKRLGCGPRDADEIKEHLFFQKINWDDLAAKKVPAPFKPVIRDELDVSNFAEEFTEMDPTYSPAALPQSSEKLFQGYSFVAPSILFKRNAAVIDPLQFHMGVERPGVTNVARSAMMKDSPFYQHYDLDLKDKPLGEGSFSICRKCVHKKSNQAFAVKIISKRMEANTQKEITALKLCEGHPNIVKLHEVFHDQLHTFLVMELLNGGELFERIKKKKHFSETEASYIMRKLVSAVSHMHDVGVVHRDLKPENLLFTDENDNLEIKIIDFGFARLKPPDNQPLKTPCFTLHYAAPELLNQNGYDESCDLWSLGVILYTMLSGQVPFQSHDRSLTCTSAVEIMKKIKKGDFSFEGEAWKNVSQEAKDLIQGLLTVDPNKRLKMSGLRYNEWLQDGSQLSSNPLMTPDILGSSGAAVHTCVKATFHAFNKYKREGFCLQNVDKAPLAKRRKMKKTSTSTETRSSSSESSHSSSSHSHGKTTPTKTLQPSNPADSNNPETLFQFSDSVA
Chain of CK1a (P48729 whole entry): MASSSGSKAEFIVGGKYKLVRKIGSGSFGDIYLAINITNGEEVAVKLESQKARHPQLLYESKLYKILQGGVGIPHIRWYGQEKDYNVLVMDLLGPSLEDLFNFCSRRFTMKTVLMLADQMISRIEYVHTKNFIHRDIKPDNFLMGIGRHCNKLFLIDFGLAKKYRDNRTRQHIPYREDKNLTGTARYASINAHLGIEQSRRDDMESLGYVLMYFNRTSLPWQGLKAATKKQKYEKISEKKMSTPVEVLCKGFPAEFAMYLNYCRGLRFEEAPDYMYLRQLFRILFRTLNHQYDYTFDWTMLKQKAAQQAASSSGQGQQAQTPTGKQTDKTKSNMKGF

As for `CCc1nc(C(N)=O)c(Nc2ccc(N3CCC(N4CCN(C)CC4)CC3)c(OC)c2)nc1NC1CCOCC1` [Gilteritinib, gilteritinib], the pIC50 (usually −log10 of the IC50, conventionally taken in molar units) in assay [1] is 9.30; in assay [2], 7.26; in assay [3], 7.96; in [4] (setting [21]) it was 7.83; in [4] (setting [22]) it was 7.92; in [4] (setting [23]), 7.74. The pIC50 was 7.97 in assay [4] (setting [24]) and 8.10 in assay [4] (setting [25]).

In the case of `CN1CCN(Cc2ccc(Nc3ncc(Cl)c(Nc4ccccc4S(=O)(=O)N(C)C)n3)cc2)CC1` [TP-0903], the pIC50 is 7.80 in assay [1]; 7.70 in [2]; 7.80 in [3]; 8.00 in [4] (setting [21]); 8.16 in [4] (setting [22]); 8.09 in assay [4] (setting [23]). Further, the negative-log IC50 (pIC50) in assay [4] (setting [24]) is 8.03; in [4] (setting [25]), 8.13. For the same molecule, the Inhibition (commonly the relative decrease from the control value, in per cent) was -15.9% in assay [5] (labeling site Lys1, peptide YYAMKILK); -30.0% in [5] (labeling site Lys2, peptide DLKLENLMLDKDGHIK); -14.4% in assay [11]; -5.0% in assay [12]; -23.7% in assay [19]. Besides, the inhibition (commonly the change of the read-out against control, counted positive when it falls) at 0.1 µM in [6] is 13%; in assay [7], -12.3%; in [8] it was 9.5%; in [9] (labeling site Lys1, peptide WHNQETGEQIAIKQCR) it was -16%; in [9] (labeling site Lys2, peptide DLKPENIVLQQGEQR), 14.6%; in assay [10], 14.7%. The inhibition at 0.1 µM was 8.3% in assay [13]; 21.5% in [14] (labeling site Lys1, peptide DTGHIYAMKILR); -7% in [14] (labeling site Lys2, peptide DIKPDNLLLDAK); -11.9% in assay [15]; -9.8% in assay [16] (peptide TLVIKEVSSEDIADMHSNLSNYHQYIVK); -19.6% in assay [16] (peptide VKELPTLKDMDFLNK). The inhibition at 0.1 µM in [17] was -11.5%; in assay [18], 31.9%; in assay [20], 8.4%.

The values above are taken from paper PMC7714403 (JCI Insight, 2020).
